The text below walks through data of patent US11466003B2, “Nitrogenous heterocyclic aromatic compound, preparation method therefor, pharmaceutical composition thereof, and application thereof” (SHANGHAI YINGLI PHARMACEUTICAL CO., LTD, priority 2016, dated 2022).

This assay has as its target ALK5 (Homo sapiens (Human), UniProt P36897). In words: Evaluation of IC50 of inhibitory activity toward ALK5 enzyme (ADP-Glo kinase assay). Format: biochemical. Particulars: 25 nM ALK5, 0.1 mg/mL peptide TGFbR1, 7 μM ATP, 30° C. 1 hour, ADP-Glo luminescence. The method, then: 5. […] The value of the luminescence reading was converted to % inhibition by formula (% inhibition=(max−sample RLU)/(max−min)×100, wherein, “min” refers to control fluorescence reading of reaction of no enzyme; “max” refers to the fluorescence reading of the sample with DMSO added as a control. The data was imported into MS Excel and curve fitting was performed using GraphPad Prism. IC50 values was calculated.
(In general: In ADP-Glo the light output rises with the ADP produced.)

ALK5, sequence (P36897 34-503, species assumed): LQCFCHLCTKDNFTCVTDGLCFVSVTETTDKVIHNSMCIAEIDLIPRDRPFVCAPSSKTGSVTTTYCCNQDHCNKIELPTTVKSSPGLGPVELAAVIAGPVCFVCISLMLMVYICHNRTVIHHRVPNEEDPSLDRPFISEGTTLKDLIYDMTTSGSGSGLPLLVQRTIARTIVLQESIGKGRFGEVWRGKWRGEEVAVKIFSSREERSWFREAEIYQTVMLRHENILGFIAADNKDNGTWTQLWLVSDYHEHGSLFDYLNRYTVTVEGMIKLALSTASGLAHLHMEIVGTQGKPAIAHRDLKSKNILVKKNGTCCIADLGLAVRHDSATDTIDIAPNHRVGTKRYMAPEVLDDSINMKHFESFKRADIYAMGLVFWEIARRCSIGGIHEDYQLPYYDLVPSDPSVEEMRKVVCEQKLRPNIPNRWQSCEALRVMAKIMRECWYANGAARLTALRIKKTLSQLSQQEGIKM

In the case of `Cc1cccc(-c2ccccc2-c2ccc3ncc(C(=O)O)n3c2)n1` [Compound 1], the half-maximal inhibitory concentration (IC50) worked out at 192 nM.

In turn, `Cc1cccc(-c2ccccc2-c2ccc3ncc(C(N)=O)n3c2)n1` [Compound 2] registered an IC50 of 16.5 nM. For `CNC(=O)c1cnc2ccc(-c3ccccc3-c3cccc(C)n3)cn12` [Compound 3], 27 nM corresponded to half-maximal inhibition (IC50). Compound `Cc1cccc(-c2ccccc2-c2ccc3ncc(CN)n3c2)n1` [Compound 4] displayed a half-inhibitory concentration (IC50) of 5700 nM. In turn, `Cc1cccc(-c2ccccc2-c2ccc3ncc(C(=O)N(C)C)n3c2)n1` [Compound 5] had a half-maximal inhibitory concentration (IC50) of 243 nM.

`Cc1cccc(-c2c(F)cccc2-c2ccc3ncc(C(N)=O)n3c2)n1` [Compound 6] came in with an IC50 of 82 nM. On to `NC(=O)c1cnc2ccc(-c3ccccc3-c3ccccn3)cn12` [Compound 7], for which the 50% inhibitory concentration (IC50) is 85 nM. Regarding `Cc1cccc(-c2cccc(F)c2-c2ccc3ncc(C(N)=O)n3c2)n1` [Compound 8], half-maximal inhibition (IC50) required 45 nM.

For `Cc1cccc(-c2ccc(F)cc2-c2ccc3ncc(C(N)=O)n3c2)n1` [Compound 9], the 50% inhibitory concentration (IC50) stood at 16 nM. Under `Cc1cccc(-c2cc(F)ccc2-c2ccc3ncc(C(N)=O)n3c2)n1` [Compound 10] stands 35 nM; under `Cc1cccc(-c2ccccc2-c2ccc3nccn3c2)n1` [Compound 11], 145 nM. For `Cc1cccc(-c2ccccc2-c2ccc3ncc(C(=O)NO)n3c2)n1` [Compound 12], the IC50 was 45 nM. Under `Cc1cccc(-c2ccccc2-c2ccc3ncnc(N)c3c2)n1` [Compound 13] stands 337 nM; under `Cc1cccc(-c2ccccc2-c2ccn3ncc(C(N)=O)c3c2)n1` [Compound 14], 53 nM; under `Cc1cccc(-c2ccccc2-c2ccc3ncnn3c2)n1` [Compound 15], 360 nM. The compound `Cc1cccc(-c2ccccc2-c2ccc3[nH]ncc3c2)n1` [Compound 16] had a half-inhibitory concentration (IC50) of 1300 nM. This IC50 is about 3.6-fold higher than that of the compound before. On to `Cc1cccc(-c2ccccc2-c2ccc3nncn3c2)n1` [Compound 17], for which the IC50 was more than 10000 nM. In turn, `Cc1cccc(-c2ccccc2-c2ccc3nnc(C(N)=O)n3c2)n1` [Compound 18] came in with an IC50 of 4740 nM.

`Cc1cccc(-c2ccccc2-c2ccc3c(cnn3C(N)=O)c2)n1` [Compound 19] yielded a half-maximal inhibitory concentration (IC50) of more than 10000 nM. Under `Cc1cccc(-c2ccccc2-c2ccc3ncc(C#N)n3c2)n1` [Compound 20] stands 535 nM; under `Cc1cccc(-c2ccccc2-c2ccc3ncc(-c4nnn[nH]4)n3c2)n1` [Compound 21], 72 nM. Compound `Cc1cccc(-c2ccccc2-c2ccc3ncc(N)n3c2)n1` [Compound 22] displayed an IC50 of 560 nM.

The compound `Cc1cccc(-c2ccncc2-c2ccc3ncc(C(N)=O)n3c2)n1` [Compound 23] gave an IC50 of 110 nM. Under `COc1cccc(-c2ccccc2-c2ccc3ncc(C(N)=O)n3c2)n1` [Compound 24] stands 45 nM. With `Cc1cccc(-c2ccc(C#N)cc2-c2ccc3ncc(C(N)=O)n3c2)n1` [Compound 25], 73 nM corresponded to half-maximal inhibition (IC50).

The compound `Cc1csc(-c2ccccc2-c2ccc3ncc(C(N)=O)n3c2)n1` [Compound 26] came in with an IC50 of 38 nM. Turning to `Cc1nc(-c2ccccc2-c2ccc3ncc(C(N)=O)n3c2)cs1` [Compound 27], the IC50 was found to be 193 nM. This IC50 lies about 5.1-fold higher than the previous one. As to `Cc1cccc(-c2ccccc2-c2ccc3ncc(NC=O)n3c2)n1` [Compound 28], half-maximal inhibition (IC50) was put at 674 nM. To `COc1ccc(-c2cccc(C)n2)c(-c2ccc3ncc(C(N)=O)n3c2)c1` [Compound 29] belongs 38 nM; to `Cc1cccc(-c2ccccc2-c2ccc3nc(C)c(C(N)=O)n3c2)n1` [Compound 30], 2930 nM. In turn, `Cc1cccc(-c2ccccc2-c2ccc3ncc(C)n3c2)n1` [Compound 31] had an IC50 of 126 nM. In turn, `Cc1ccn(-c2ccccc2-c2ccc3ncc(C(N)=O)n3c2)n1` [Compound 32] yielded a 50% inhibitory concentration (IC50) of 339 nM. This IC50 is about 2.7-fold higher than that of the compound before.

The compound `Cc1cccc(-c2ccccc2-c2ccc3occ(C(N)=O)c3c2)n1` [Compound 33] had an IC50 of 221 nM. `Cc1cccc(-c2ccccc2-c2ccc3ncc(S(N)(=O)=O)n3c2)n1` [Compound 34] returned an IC50 of 581 nM. To `Cc1cccc(-c2ccccc2-c2ccc3ncc(C(=N)N)n3c2)n1` [Compound 35] belongs 579 nM; to `Cc1cccc(-c2ccc(C(N)=O)cc2-c2ccc3ncc(C(N)=O)n3c2)n1` [Compound 37], 63 nM; to `Cc1nc(-c2ccccc2-c2ccc3ncc(C(N)=O)n3c2)ccc1F` [Compound 38], 18 nM. Consider `Cc1nc(-c2ccccc2-c2ccc3ncc(C(N)=O)n3c2)ccc1Cl` [Compound 39], for which it took 196 nM to reach half-maximal inhibition (IC50). This IC50 lies about 11-fold higher than the previous one.

Compound `Cc1ccc(F)c(-c2ccccc2-c2ccc3ncc(C(N)=O)n3c2)n1` [Compound 40] came in with a half-maximal inhibitory concentration (IC50) of 12 nM. The compound `Cc1ccnc(-c2ccccc2-c2ccc3ncc(C(N)=O)n3c2)n1` [Compound 42] showed a 50% inhibitory concentration (IC50) of 144 nM. On to `Cc1cncc(-c2ccccc2-c2ccc3ncc(C(N)=O)n3c2)n1` [Compound 44], for which 322 nM corresponded to half-maximal inhibition (IC50). As for `NC(=O)c1cnc2ccc(-c3ccccc3-c3cccc(C(F)(F)F)n3)cn12` [Compound 45], the IC50 is 15 nM. `Cn1ccc(-c2ccccc2-c2ccc3ncc(C(N)=O)n3c2)n1` [Compound 47]: half-maximal inhibition (IC50) required 126 nM. In the case of `Cc1nccc(-c2ccccc2-c2ccc3ncc(C(N)=O)n3c2)n1` [Compound 48], the IC50 was 237 nM. Compound `Cc1cccc(-c2ccccc2-c2ccc3nc[nH]c(=O)c3c2)n1` [Compound 49] had a half-inhibitory concentration (IC50) of 102 nM. Under `Cc1cccc(-c2ccccc2-c2ccc3ncc(C(N)=O)nc3c2)n1` [Compound 52] stands 415 nM. As to `Cc1cccc(-c2cscc2-c2ccc3ncc(C(N)=O)n3c2)n1` [Compound 53], the half-maximal inhibitory concentration (IC50) worked out at 6.9 nM.

In the case of `Cc1cccc(-c2ccccc2-c2ccc3ncc(C(N)=O)n3n2)n1` [Compound 54], the IC50 was 98 nM. This IC50 is about 14-fold higher than that of the compound before. In the case of `Cc1cccc(-c2ccc(OCc3ccccc3F)cc2-c2ccc3ncc(C(N)=O)n3c2)n1` [Compound 55], the midpoint of inhibition, the IC50, lay at 13 nM. To `Cc1cccc(-c2cc3nccn3cc2-c2ccc3ncc(C(N)=O)n3c2)n1` [Compound 57] belongs 56 nM; to `Cc1cccc(-c2ccccc2-c2ccc3ncc(C(=O)NC4CC4)n3c2)n1` [Compound 58], 46 nM; to `Cc1cccc(-c2ccc(Oc3ccccc3F)cc2-c2ccc3ncc(C(N)=O)n3c2)n1` [Compound 59], 39 nM. Take `Cc1cccc(-c2ccccc2-c2ccc3ncc(C(=O)NCCN4CCOCC4)n3c2)n1` [Compound 60]: 64 nM corresponded to half-maximal inhibition (IC50). Against the preceding compound, the IC50 is about 1.6-fold higher.

`Cc1cccc(-c2ccccc2-c2ccc3ncc(C(=O)NC4CCOCC4)n3c2)n1` [Compound 61] returned an IC50 of 114 nM. In turn, `Cc1coc(-c2ccccc2-c2ccc3ncc(C(N)=O)n3c2)n1` [Compound 63] registered a 50% inhibitory concentration (IC50) of 74 nM. Against the preceding compound, the IC50 is about 1.5-fold lower. Regarding `Cc1cccc(-c2ccccc2-c2ccnc3ccc(C(N)=O)cc23)n1` [Compound C-1, reference compound], the half-inhibitory concentration (IC50) is more than 10000 nM.

Broadly, the IC50 is the concentration that inhibits the measured activity by half. Higher therefore signals a need for much substance.
